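96-well plates; 48 h exposure; 5 concentrations. Endpoints by linear interpolation between flanking doses. Not reached: highest tested concentration assigned. Abbreviation: GI50, concentration required for 50% inhibition of growth.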 The source made the active and inactive calls. Rule as the data show it: active = GI50 up to about 1.1 µM and inactive = higher.
Columns and labels:
Test in all cases: DTP human tumour cell line panel, 48 h
[1] = test system: UACC-257
[2] = test system: SF-295
[3] = test system: RPMI-8226
[4] = test system: NCI-H460
[5] = test system: ACHN
[6] = test system: UO-31
[7] = test system: A549
[8] = test system: HL-60
[9] = test system: SR
[10] = test system: SF-268
[11] = test system: CCRF-CEM
[12] = test system: SK-MEL-5
[13] = test system: HCT-15
[14] = test system: HOP-92
[15] = test system: IGROV-1
[16] = test system: NCI-H522

Cc1cc2c(C)n(Cc3ccc(Cl)cc3Cl)nc2c(C#N)c1C
GI50 [1]: > 100 µM (inactive)
GI50 [2]: 18.2 µM (inactive)
GI50 [3]: 99.3 µM (inactive)
GI50 [4]: 35.9 µM (inactive)
GI50 [5]: 49 µM (inactive)
GI50 [6]: 52.8 µM (inactive)
GI50 [7]: 28.2 µM (inactive)
GI50 [8]: > 100 µM (inactive)
GI50 [9]: > 100 µM (inactive)
GI50 [10]: 32.3 µM (inactive)
GI50 [11]: > 100 µM (inactive)
GI50 [12]: 85.3 µM (inactive)
GI50 [13]: > 100 µM
GI50 [14]: 13.6 µM (inactive)
GI50 [15]: 41 µM (inactive)
GI50 [16]: 38.5 µM (inactive)

O=C1c2ccccc2N2OC3(N4CCOCC4)CCCC3C12c1ccccc1 (stereo not given)
GI50 [1]: > 100 µM (inactive)
GI50 [2]: > 100 µM (inactive)
GI50 [3]: > 100 µM (inactive)
GI50 [5]: > 100 µM (inactive)
GI50 [6]: > 100 µM (inactive)
GI50 [7]: > 100 µM (inactive)
GI50 [8]: 77.1 µM (inactive)
GI50 [9]: > 100 µM (inactive)
GI50 [10]: > 100 µM (inactive)
GI50 [11]: > 100 µM (inactive)
GI50 [12]: > 100 µM (inactive)
GI50 [13]: > 100 µM
GI50 [14]: 53.3 µM (inactive)
GI50 [15]: > 100 µM (inactive)
GI50 [16]: 86.1 µM (inactive)

Clc1cccc(C2SCc3nc4ccccc4n32)c1 (stereo not given)
GI50 [2]: 30.3 µM (inactive)
GI50 [3]: 14.2 µM (inactive)
GI50 [4]: 27.8 µM (inactive)
GI50 [5]: 18.4 µM (inactive)
GI50 [7]: 42.9 µM (inactive)
GI50 [8]: 7.57 µM (inactive)
GI50 [9]: 16.3 µM (inactive)
GI50 [10]: 28.8 µM (inactive)
GI50 [11]: 27.4 µM (inactive)
GI50 [13]: 16.8 µM
GI50 [14]: 11.5 µM (inactive)
GI50 [15]: 22.3 µM (inactive)
GI50 [16]: 10.4 µM (inactive)

COc1ccc(OC)c(NC(=O)C(=O)C(C(C)=O)c2nc3ccc(Cl)cc3nc2O)c1 (stereo not given)
GI50 [1]: > 50 µM (inactive)
GI50 [2]: > 50 µM (inactive)
GI50 [3]: > 50 µM (inactive)
GI50 [4]: > 50 µM (inactive)
GI50 [5]: > 50 µM (inactive)
GI50 [6]: > 50 µM (inactive)
GI50 [7]: > 50 µM (inactive)
GI50 [8]: > 50 µM (inactive)
GI50 [10]: > 50 µM (inactive)
GI50 [11]: > 5 µM (inactive)
GI50 [12]: > 50 µM (inactive)
GI50 [13]: > 50 µM
GI50 [14]: > 50 µM (inactive)
GI50 [15]: > 50 µM (inactive)

COC(=O)/C=C(C)/C=C/C1OC(C)OCC1O (stereo not given)
GI50 [1]: > 100 µM (inactive)
GI50 [2]: > 100 µM (inactive)
GI50 [3]: > 100 µM (inactive)
GI50 [4]: > 100 µM (inactive)
GI50 [5]: > 100 µM (inactive)
GI50 [6]: > 100 µM (inactive)
GI50 [7]: > 100 µM (inactive)
GI50 [8]: > 100 µM (inactive)
GI50 [10]: > 100 µM (inactive)
GI50 [11]: > 100 µM (inactive)
GI50 [12]: > 100 µM (inactive)
GI50 [13]: > 100 µM
GI50 [14]: > 100 µM (inactive)
GI50 [15]: > 100 µM (inactive)
GI50 [16]: > 100 µM (inactive)

COC(=O)C(=O)C(C(=O)C(=O)Nc1cc([N+](=O)[O-])ccc1[N+](=O)[O-])c1nc2ccc(C(=O)c3ccccc3)cc2nc1O (stereo not given)
GI50 [1]: 34.3 µM (inactive)
GI50 [2]: 31 µM (inactive)
GI50 [3]: 20.1 µM (inactive)
GI50 [4]: 35.4 µM (inactive)
GI50 [5]: 34.8 µM (inactive)
GI50 [6]: 17.4 µM (inactive)
GI50 [7]: 43.8 µM (inactive)
GI50 [9]: 21.7 µM (inactive)
GI50 [10]: 47.6 µM (inactive)
GI50 [11]: 25.2 µM (inactive)
GI50 [12]: 18.3 µM (inactive)
GI50 [13]: 56.5 µM
GI50 [15]: 33.6 µM (inactive)
GI50 [16]: 26.7 µM (inactive)

Nc1nc2c(ncn2Cc2ccccc2CCO)c(=O)[nH]1
GI50 [2]: > 100 µM (inactive)
GI50 [3]: > 100 µM (inactive)
GI50 [4]: > 100 µM (inactive)
GI50 [5]: > 100 µM (inactive)
GI50 [6]: > 100 µM (inactive)
GI50 [7]: > 100 µM (inactive)
GI50 [8]: > 100 µM (inactive)
GI50 [10]: > 100 µM (inactive)
GI50 [11]: > 100 µM (inactive)
GI50 [12]: > 100 µM (inactive)
GI50 [13]: > 100 µM
GI50 [14]: > 100 µM (inactive)
GI50 [15]: > 100 µM (inactive)
GI50 [16]: > 100 µM (inactive)

Oc1nc2cc(Cl)ccc2nc1/C(=N\Nc1ccccc1)C(O)c1ccc(Cl)c(Cl)c1 (stereo not given)
GI50 [1]: > 100 µM (inactive)
GI50 [2]: > 100 µM (inactive)
GI50 [3]: > 100 µM (inactive)
GI50 [4]: > 100 µM (inactive)
GI50 [5]: > 100 µM (inactive)
GI50 [6]: > 100 µM (inactive)
GI50 [7]: > 100 µM (inactive)
GI50 [8]: > 100 µM (inactive)
GI50 [9]: > 100 µM (inactive)
GI50 [10]: 47.1 µM (inactive)
GI50 [11]: > 100 µM (inactive)
GI50 [12]: > 100 µM (inactive)
GI50 [13]: > 100 µM
GI50 [14]: > 100 µM (inactive)
GI50 [15]: > 100 µM (inactive)
GI50 [16]: > 100 µM (inactive)

Nc1ncnc2c1sc(=S)n2-c1ccccc1
GI50 [1]: > 100 µM (inactive)
GI50 [2]: > 100 µM (inactive)
GI50 [3]: > 100 µM (inactive)
GI50 [4]: > 100 µM (inactive)
GI50 [5]: > 100 µM (inactive)
GI50 [6]: 89.3 µM (inactive)
GI50 [7]: > 100 µM (inactive)
GI50 [8]: > 100 µM (inactive)
GI50 [9]: > 100 µM (inactive)
GI50 [10]: > 100 µM (inactive)
GI50 [11]: > 100 µM (inactive)
GI50 [12]: > 100 µM (inactive)
GI50 [13]: 96.8 µM
GI50 [14]: 40.8 µM (inactive)
GI50 [15]: > 100 µM (inactive)
GI50 [16]: > 100 µM (inactive)

N#Cc1cc([N+](=O)[O-])ccc1NC(=O)C(F)(F)F
GI50 [1]: > 100 µM (inactive)
GI50 [2]: > 100 µM (inactive)
GI50 [3]: > 45.8 µM (inactive)
GI50 [4]: > 42.3 µM (inactive)
GI50 [5]: > 100 µM (inactive)
GI50 [6]: > 100 µM (inactive)
GI50 [7]: > 74.3 µM (inactive)
GI50 [8]: > 57.1 µM (inactive)
GI50 [9]: > 100 µM (inactive)
GI50 [10]: > 100 µM (inactive)
GI50 [11]: > 84.7 µM (inactive)
GI50 [12]: > 100 µM (inactive)
GI50 [13]: > 41.4 µM
GI50 [14]: 58.7 µM (inactive)
GI50 [15]: > 100 µM (inactive)
GI50 [16]: > 58.5 µM (inactive)

CCN(CC)c1ccc(/N=N/c2ccc(-c3nc4cccn(C)c-4n3)cc2)cc1
GI50 [1]: 9.14 µM (inactive)
GI50 [2]: 5.04 µM (inactive)
GI50 [3]: 2.36 µM (inactive)
GI50 [4]: 5.07 µM (inactive)
GI50 [6]: 17.1 µM (inactive)
GI50 [7]: 6.62 µM (inactive)
GI50 [8]: 1.75 µM (inactive)
GI50 [9]: 2.51 µM (inactive)
GI50 [10]: 13.2 µM (inactive)
GI50 [11]: 3.75 µM (inactive)
GI50 [12]: 4.8 µM (inactive)
GI50 [13]: 3.75 µM
GI50 [14]: 11.7 µM (inactive)
GI50 [15]: 10.7 µM (inactive)
GI50 [16]: 7.11 µM (inactive)

COC(=O)/C(=N/NC(C)(C)C)C(C(=O)C=C(C)C)C(=O)C(=O)Nc1ccc(Cl)cc1C (stereo not given)
GI50 [1]: > 100 µM (inactive)
GI50 [2]: > 100 µM (inactive)
GI50 [3]: > 100 µM (inactive)
GI50 [4]: > 100 µM (inactive)
GI50 [5]: > 100 µM (inactive)
GI50 [6]: > 100 µM (inactive)
GI50 [7]: > 100 µM (inactive)
GI50 [8]: > 100 µM (inactive)
GI50 [9]: > 100 µM (inactive)
GI50 [10]: > 100 µM (inactive)
GI50 [11]: > 100 µM (inactive)
GI50 [12]: > 100 µM (inactive)
GI50 [13]: > 100 µM
GI50 [15]: > 100 µM (inactive)
GI50 [16]: > 100 µM (inactive)

COc1ccc(C2Oc3c(c(O)cc4c3[C@H](c3ccc(O)cc3O)[C@H](O)C(c3ccc(O)c(O)c3)O4)C[C@@H]2O)cc1O (stereo not given in full)
GI50 [1]: > 100 µM (inactive)
GI50 [2]: > 100 µM (inactive)
GI50 [3]: > 100 µM (inactive)
GI50 [4]: > 100 µM (inactive)
GI50 [5]: > 100 µM (inactive)
GI50 [6]: > 100 µM (inactive)
GI50 [7]: > 100 µM (inactive)
GI50 [8]: > 100 µM (inactive)
GI50 [9]: > 100 µM (inactive)
GI50 [10]: > 100 µM (inactive)
GI50 [11]: > 100 µM (inactive)
GI50 [12]: > 100 µM (inactive)
GI50 [13]: > 100 µM
GI50 [14]: > 100 µM (inactive)
GI50 [15]: > 100 µM (inactive)
GI50 [16]: > 100 µM (inactive)

Reference: ChEMBL document CHEMBL1201862, “PubChem BioAssay data set” (2004)
